Test results as given in patent US8278482B2, “Antimicrobial N-chlorinated compositions” (priority 2008, dated 2012).
Like-named read-outs stand apart in the source and are kept apart here.

Key:
Type in all cases: cell-based
[1] = test system: Escherichia coli (ATCC 25922); experiment: Antimicrobial activity (MBC), E. coli ATCC 25922
Protocol: (§1) To determine antimicrobial activity, Escherichia coli (ATCC 25922), Staphylococcus aureus (ATCC 29213), Pseudomonas aeruginosa (ATCC 27853), and Candida albicans (ATCC 10231) were used in primary screening. In addition, Escherichia coli (MCC 80392), Staphylococcus aureus (MCC 91731), Pseudomonas aeruginosa (MCC 4438), and Candida albicans (MCC 50319), provided by Alcon Laboratories, Fort Worth, Tex., were used. The microbial cultures were diluted in sterile saline pH 4 to prepare inocula. Test compounds were titrated by stepwise two-fold dilutions in sterile saline pH 4. A total of 1.0×10^5 to 1.0×10^6 Colony Forming Units (CFU)/mL microbe was added to each tube, mixed by gentle vortexing, and then incubated at room temperature for 1 h. Microbial plating on Petri dishes (Tryptic Soy agar or Saboraud's Dextrose agar) was performed immediately after the designated exposure after neutralization of the test article dilutions in Dey-Engley Broth. Plates were incubated at 37° C., and the numbers of microbes were counted by direct colony count to quantitate the surviving microbes as CFU/mL. Positive growth controls were made with sterile 0.9% saline. Compounds were dissolved in unbuffered isotonic saline (SAL) or phosphate buffered saline (PBS) at pH 4 or pH 7 (using HCl and/or NaOH as needed). All compounds were tested three times. The results are tabulated to show the comparison of antimicrobial effectiveness range of the compounds.
(§2) Data shown are the Minimum Bactericidal Concentration (MBC) or Minimum Fungicidal Concentration (MFC) (≧99.9% kill) in μg/mL.

[2] = test system: Staphylococcus aureus (ATCC 29213); experiment: Antimicrobial activity (MBC), S. aureus ATCC 29213
Protocol: as §1, §2

[3] = test system: Candida albicans (ATCC 10231); experiment: Antimicrobial activity (MFC), C. albicans ATCC 10231; details: ATCC10231, C. albicans ATCC 10231, pH 4 (Sal), 1 h exposure at room temperature, read-out: Minimum Fungicidal Concentration (MFC) (≧99.9% kill)
Protocol: as §1, §2

[4] = test system: mouse fibroblast cells (ATCC CCL-1, L929); experiment: Cytotoxicity, WST-8 colorimetric assay; details: 60 min exposure
Protocol: Cytotoxicity was assessed by a colorimetric assay system using the Dojindo™ cell counting kit containing 2-(2-methoxy-4-nitrophenyl)-3-(4-nitrophenyl)-5-(2,4-disulfophenyl)-2H-tetrazolium, monosodium salt (WST-8). In this assay, the WST-8 reagent was bioreduced by cellular dehydrogenases to a formazan product that is highly soluble in tissue culture medium.
In a standard assay, mouse fibroblast cells (ATCC CCL-1, L929), were cultured in Minimum Essential Medium, α-medium supplemented with 10% heat inactivated fetal bovine serum, L-glutamine, penicillin and streptomycin. Cells were trypsinized and counted under the microscope and seeded at 1.5×10^4 total cells per 100 μL per well of a flat-bottom 96-well plate in order to achieve ˜80% confluence after overnight incubation at 37° C. On the day of the assay, the tissue culture medium was removed and replaced with 30 μL of fresh medium.
Test articles were prepared as 2-fold serial dilutions and 170 μL of each dilution is added into each of 4-wells (total volume per well=200 μL). The test plate was then returned to the 37° C. incubator for 60 min. Immediately after the exposed time, test article from each well was replaced with 200 μL of fresh media. Plates were incubated at 37° C. for 18-20 hours. The following day growth medium was replaced with 100 μL/well of fresh medium containing 10 μL WST-8 reagent. Cells were incubated under growth conditions (5% CO2 at 37° C. humidified incubator), protected from light, until color development was achieved (usually 1-4 hours). Absorbance was read at 450 nm with reference wavelength at 750 nm using Molecular Device SpectraMax M5 plate reader. Untreated or vehicle only treated cells receiving WST-8 reagent served as positive cell proliferation controls.
The absorbance A450/750 from each well of untreated cells and from each well within the dilution series was measured. […] Next, a non-linear regression (curve fit) analysis was performed on all the absorbance data measured from the dilution series, including the absorbance data obtained from wells of the untreated control cells. For each dilution within the dilution series, an average A450/750 was calculated from the four replicate wells.

[5] = ATCC25922, E. coli ATCC 25922, pH 4 (Sal), 1 h exposure at room temperature, read-out: Minimum Bactericidal Concentration (MBC) (≧99.9% kill)
[6] = ATCC29213, S. aureus ATCC 29213, pH 4 (Sal), 1 h exposure at room temperature, read-out: Minimum Bactericidal Concentration (MBC) (≧99.9% kill)
[7] = ATCC25922, E. coli ATCC 25922, pH 7 (PBS), 1 h exposure at room temperature, read-out: Minimum Bactericidal Concentration (MBC) (≧99.9% kill)

SMILES | MBC [1, 5] [µg/mL] | MBC [2, 6] [µg/mL] | MFC [3] [µg/mL] | CT50 (concentration that results in survival of 50% of the cells) ([4]; pH 4 (Sal)) [mM] | MBC [1, 7] [µg/mL] | MBC ([1]; ATCC25922, 1 h, pH 4, read-out: Minimum Bactericidal Concentration (MBC) (≧99.9% kill)) [µg/mL] | MBC ([2]; ATCC29213, 1 h, pH 4, read-out: Minimum Bactericidal Concentration (MBC) (≧99.9% kill)) [µg/mL] | CT50 (concentration that results in survival of 50% of the cells) ([4]; pH 7 (PBS)) [mM] | CT50 (concentration that results in survival of 50% of the cells) ([4]; pH 4 (Acetate)) [mM]
CC(C)(CCS(=O)(=O)CC[N+](C)(C)C)N(Cl)Cl.[Cl-] [Compound 21-02, 2-(3-(Dichloroamino)-3-methylbutylsulfonyl)-N,N,N-trimethylethanammonium chloride] | 8 | 2 | 32 | <0.03 | – | – | – | – | –
CN(CC[N+](C)(C)C)C(=O)CC(C)(C)N(Cl)Cl.[Cl-] [Compound 21-14, 2-(3-(Dichloroamino)-N,3-dimethylbutanamido)-N,N,N-trimethylethanaminium chloride] | 16 | 2 | 32 | – | 256 | – | – | – | –
CCCC[N+](C)(CCCC)CCC(C)(C)N(Cl)Cl [Compound 21-48, N,N-Dibutyl-3-(dichloroamino)-N-3-dimethylbutan-1-aminium chloride] | – | – | – | – | – | 16 | 4 | – | –
CC(C)(C[N+]1(C)CCCCC1)N(Cl)Cl.[Cl-] [Compound 21-78, 1-(2-(dichloroamino)-2-methylpropyl)-1-methylpiperidinium chloride] | 16 | 8 | 64 | – | – | – | – | – | –
C[S+](C)CC(C)(C)N(Cl)Cl.[Cl-] [Compound 21-86, (2-(Dichloroamino)-2-methylpropyl)dimethylsulfonium chloride] | 8 | 4 | 128 | – | – | – | – | 0.6 | –
CC(C)(C[N+](C)(C)CCS(=O)(=O)O)N(Cl)Cl.[Cl-] [Compound 21-90, 2-(Dichloroamino)-N,N-2-trimethyl-N-(2-sulfoethyl)propan-1-ammonium chloride] | 64 | 16 | 128 | – | – | – | – | – | –
CC(C)(c1cn(CC[N+](C)(C)C)nn1)N(Cl)Cl.[Cl-] [Compound 21-92, 2-(4-(2-(Dichloroamino)propan-2-yl)-1H-1,2,3-triazol-1-yl)-N,N,N-trimethylethanaminium chloride] | 8 | 4 | 32 | – | – | – | – | – | –
CC(C)(CC(=O)OCC[N+]1(C)CCCCC1)N(Cl)Cl.[Cl-] [Compound 21-93, 1-(2-(3-(Dichloroamino)-3-methylbutanoyloxy)ethyl)-1-methylpiperidinium chloride] | 4 | 2 | – | – | 512 | – | – | – | –
CC(C)(CCC[P+](C)(C)C)N(Cl)Cl.[Cl-] [Compound 21-106, (4-(Dichloroamino)-4-methylpentyl)trimethylphosphonium chloride] | 4 | 2 | > 256 | – | – | – | – | – | –
CC(C)(CCC[N+](C)(C)C)N(Cl)Cl.[Cl-] [Compound 21-108] | 8 | 2 | 256 | – | – | – | – | – | –
CC(=O)N1CC[N+](C)(CC(C)(C)N(Cl)Cl)CC1.[Cl-] [Compound 21-110, 4-Acetyl-1-(2-(dichloroamino)-2-methylpropyl)-1-methylpiperazin-1-ium chloride] | 64 | 16 | > 1020 | 0.9 | – | – | – | – | –
CC(C)(CCS(=O)(=O)CCC[N+](C)(C)C)N(Cl)Cl.[Cl-] [Compound 21-112, S-3-(3-(Dichloroamino)-3-methylbutylsulfonyl)-N,N,N-trimethylpropan-1-ammonium chloride] | 8 | 2 | 32 | 1.4 | – | – | – | – | –
CC(C)(CC[N+]1(C)CCC(F)(F)CC1)N(Cl)Cl.[Cl-] [Compound 21-116, 1-(3-(Dichloroamino)-3-methylbutyl)-4,4-difluoro-1-methylpiperidinium chloride] | 4 | 2 | 32 | 3.0 | – | – | – | – | –
CC(C)(CC[N+]1(C)CCCCCC1)N(Cl)Cl.[Cl-] [Compound 21-118, 1-(3-(Dichloroamino)-3-methylbutyl)-1-methylazepanium chloride] | 4 | 4 | 16 | 0.9 | – | – | – | – | –
CC(C)(CC[N+]12CCC(CC1)CC2)N(Cl)Cl [Compound 21-120, 1-(3-(Dichloroamino)-3-methylbutyl)-1-azoniabicyclo[2.2.2]octane methanesulfonate] | 8 | 2 | 32 | – | – | – | – | – | 1.3
CC1(C)CC[N+](C)(CCC(C)(C)N(Cl)Cl)CC1.[Cl-] [Compound 21-122, 1-(3-(Dichloroamino)-3-methylbutyl)-1,4,4-trimethylpiperidinium chloride] | 16 | 4 | – | – | – | – | – | – | 1.0
CCCC[N+](C)(C)CCC(C)(C)N(Cl)Cl.[Cl-] [Compound 21-124, N-Butyl-3-(dichloroamino)-N,N,3-trimethylbutan-1-ammonium chloride] | 8 | 2 | 64 | – | – | – | – | – | 1.0
CC(C)(CC[N+](C)(C)C1CCCCC1)N(Cl)Cl.[Cl-] [Compound 21-126, N-(3-(Dichloroamino)-3-methylbutyl)-N,N-dimethylcyclohexanammonium chloride] | 16 | 4 | > 1020 | – | – | – | – | – | 0.6
CC(C)(CC[N+](C)(C)CCC[N+](C)(C)C)N(Cl)Cl.[Cl-].[Cl-] [Compound 21-128, N^1-(3-(Dichloroamino)-3-methylbutyl)-N^1,N^1,N^3,N^3,N^3-pentamethylpropane-1,3-diammonmium chloride] | 16 | 4 | 128 | – | – | – | – | – | 1.3
CC(C)(CC[N+]1(C)CCCC1)N(Cl)Cl.[Cl-] [Compound 21-130, 1-(3-(Dichloroamino)-3-methylbutyl)-1-methylpyrrolidinium chloride] | 4 | 2 | 32 | – | – | – | – | – | –
CC(C)(CC[N+](C)(C)CC(F)(F)F)N(Cl)Cl.[Cl-] [Compound 21-132, 3-(Dichloroamino)-N,N,3-trimethyl-N-(2,2,2-trifluoroethyl)butan-1-ammonium chloride] | 4 | 2 | 32 | – | – | – | – | – | –
CC[N+](C)(C)CCC(C)(C)N(Cl)Cl.[Cl-] [Compound 21-134, 3-(Dichloroamino)-N-ethyl-N,N,3-trimethylbutan-1-ammonium chloride] | – | – | – | – | – | – | – | – | 1.4
CCCCCCCCCCCC[N+](C)(C)CCC(C)(C)N(Cl)Cl [Compound 21-138, N-(3-(Dichloroamino)-3-methylbutyl)-N,N-dimethyldodecan-1-ammonium chloride] | – | – | – | – | – | – | – | – | 0.5
